Test results reported in ChEMBL document CHEMBL2034976, “Relationship between structure and P-glycoprotein inhibitory activity of dimeric peptides related to the Dmt-Tic pharmacophore” (Bioorg Med Chem Lett, 2012).
Active and inactive are the calls of the source. The rule behind the calls is not given here.

Experiments:
K652 = experiment: Inhibition of P-gp-mediated rhodamine 123 efflux in doxorubicin-resistant human […] cells at 100 uM treated for 1 hr measured after washout by FACS flow cytometry relative to verapamil; type: cell-based
[1] = Noncompetitive inhibition of P-gp assessed as reduction in P-gp-associated ATPase activity by Pgp-GloTM Assay
[2] = Competitive inhibition of P-gp assessed as P-gp-associated ATPase activity at 10 uM by Pgp-GloTM Assay

## CN(C)[C@@H](CC(C)(C)C)C(=O)N1Cc2ccccc2C[C@H]1C(=O)NCCCC[C@@H](NC(=O)[C@@H]1Cc2ccccc2CN1C(=O)[C@H](CC(C)(C)C)N(C)C)C(N)=O
K652
  fold change (FC): 2

## CN(C)[C@@H](CC(C)(C)C)C(=O)N1Cc2ccccc2C[C@H]1C(=O)NCCCC[C@H](NC(=O)[C@@H]1Cc2ccccc2CN1C(=O)[C@H](CC(C)(C)C)N(C)C)C(N)=O
[1]
  inhibition: Active
K652
  fold change (FC): 2
[2]
  inhibition: Active
